Assays:
Format in all cases: in vivo
Conditions in all cases: post-emergence spray at 4-5 leaf stage, 250 g/ha active ingredient with 450 kg/ha water, rated after 3 weeks in greenhouse
rice = experiment: post-emergence stage experiment, crop (Table 1); parameters: key: Level 10: completely dead; Level 9: above 95% growth control rate; Level 8: above 90% growth control rate; Level 7: above 80% growth control rate; Level 6: above 70% growth control rate; Level 5: above 60% growth control rate; Level 4: above 50% growth control rate; Level 3: above 20% growth control rate; Level 2: 5%-20% growth control rate; Level 1: below 5% growth control rate
Method: (§1) The activity level standard of harmful plant destruction (i.e. growth control rate) is as follows: The above described growth control rate is fresh weight control rate. Monocotyledonous and dicotyledonous weed seeds and main crop seeds (i.e. wheat, corn, rice, soybean, cotton, oilseed, millet and sorghum.) were put into a plastic pot loaded with soil. Then covered with 0.5-2 cm soil, the seeds were allowed to grow in good greenhouse environment. The test plants were treated at 4-5 leaf stage 2-3 weeks after sowing. The test compounds of the invention were dissolved with acetone respectively, then added with 80 tween and diluted by certain amount of water to certain concentration. The solution was sprayed to the plants with a sprayer. Then the plants were cultured for 3 weeks in the greenhouse.

corn = experiment: post-emergence stage experiment, crop (Table 1)
Method: as §1

wheat = experiment: post-emergence stage experiment, crop (Table 1)
Method: as §1

bidens bipinnata = experiment: weed control effect in post-emergence stage (Table 1); parameters: key: Level 10: completely dead; Level 9: above 95% growth control rate; Level 8: above 90% growth control rate; Level 7: above 80% growth control rate; Level 6: above 70% growth control rate; Level 5: above 60% growth control rate; Level 4: above 50% growth control rate; Level 3: above 20% growth control rate; Level 2: 5%-20% growth control rate; Level 1: below 5% growth control rate
Method: as §1

Indian mallow = experiment: as above; parameters: key: Level 10: completely dead; Level 9: above 95% growth control rate; Level 8: above 90% growth control rate; Level 7: above 80% growth control rate; Level 6: above 70% growth control rate; Level 5: above 60% growth control rate; Level 4: above 50% growth control rate; Level 3: above 20% growth control rate; Level 2: 5%-20% growth control rate; Level 1: below 5% growth control rate
Method: as §1

crab grass = experiment: as above; parameters: key: Level 10: completely dead; Level 9: above 95% growth control rate; Level 8: above 90% growth control rate; Level 7: above 80% growth control rate; Level 6: above 70% growth control rate; Level 5: above 60% growth control rate; Level 4: above 50% growth control rate; Level 3: above 20% growth control rate; Level 2: 5%-20% growth control rate; Level 1: below 5% growth control rate
Method: as §1

rorippa indica = experiment: as above; parameters: key: Level 10: completely dead; Level 9: above 95% growth control rate; Level 8: above 90% growth control rate; Level 7: above 80% growth control rate; Level 6: above 70% growth control rate; Level 5: above 60% growth control rate; Level 4: above 50% growth control rate; Level 3: above 20% growth control rate; Level 2: 5%-20% growth control rate; Level 1: below 5% growth control rate
Method: as §1

echinochloa = experiment: as above; parameters: key: Level 10: completely dead; Level 9: above 95% growth control rate; Level 8: above 90% growth control rate; Level 7: above 80% growth control rate; Level 6: above 70% growth control rate; Level 5: above 60% growth control rate; Level 4: above 50% growth control rate; Level 3: above 20% growth control rate; Level 2: 5%-20% growth control rate; Level 1: below 5% growth control rate
Method: as §1

foxtail = experiment: as above; parameters: key: Level 10: completely dead; Level 9: above 95% growth control rate; Level 8: above 90% growth control rate; Level 7: above 80% growth control rate; Level 6: above 70% growth control rate; Level 5: above 60% growth control rate; Level 4: above 50% growth control rate; Level 3: above 20% growth control rate; Level 2: 5%-20% growth control rate; Level 1: below 5% growth control rate
Method: as §1

Row | SMILES | effect on crop, Rice (level) (rice) | effect on crop, Corn (level) (corn) | effect on crop, Wheat (level) (wheat) | weed control effect, Bidens bipinnata (level) (bidens bipinnata) | weed control effect, Indian mallow (level) (Indian mallow) | weed control effect, Crab grass (level) (crab grass) | weed control effect, Rorippa indica (level) (rorippa indica) | weed control effect, Echinochloa (level) (echinochloa) | weed control effect, Green foxtail (level) (foxtail)
1 | Cc1nn(C)cc1C(=O)Oc1c(C(=O)c2ccc(C(F)(F)F)c(N3CCCCC3=O)c2Cl)cnn1C [Compound 034] | 3 (Level 3: above 20% growth control rate) | 3 (Level 3: above 20% growth control rate) | 1 (Level 1: below 5% growth control rate) | 4 (Level 4: above 50% growth control rate) | 9 (Level 9: above 95% growth control rate) | 10 | 10 | 10 | 5 (Level 5: above 60% growth control rate)
2 | CCn1ncc(C(=O)c2ccc(C(F)(F)F)c(-n3cc(C)cn3)c2Cl)c1OC(=O)c1cn(C)nc1C [Compound 137] | 8 (Level 8: above 90% growth control rate) | 5 (Level 5: above 60% growth control rate) | 3 (Level 3: above 20% growth control rate) | 10 | 10 | 7 (Level 7: above 80% growth control rate) | 8 (Level 8: above 90% growth control rate) | 10 | 10
3 | CCn1ncc(C(=O)c2ccc(C(F)(F)F)c(N3CCCCC3=O)c2Cl)c1O [Compound 106] | 9 (Level 9: above 95% growth control rate) | 3 (Level 3: above 20% growth control rate) | 3 (Level 3: above 20% growth control rate) | 6 (Level 6: above 70% growth control rate) | 7 (Level 7: above 80% growth control rate) | 6 (Level 6: above 70% growth control rate) | 5 (Level 5: above 60% growth control rate) | 10 | 3 (Level 3: above 20% growth control rate)
4 | Cn1cc(C(=O)Oc2c(C(=O)c3ccc(C(F)(F)F)c(N4CCCCC4=O)c3Cl)cnn2C)cn1 [Compound 033] | 8 (Level 8: above 90% growth control rate) | 3 (Level 3: above 20% growth control rate) | 2 (Level 2: 5%-20% growth control rate) | 9 (Level 9: above 95% growth control rate) | 10 | 9 (Level 9: above 95% growth control rate) | 10 | 9 (Level 9: above 95% growth control rate) | 10
5 | Cc1cnn(-c2c(C(F)(F)F)ccc(C(=O)c3cnn(C)c3O)c2Cl)c1 [Compound 080] | 1 (Level 1: below 5% growth control rate) | 3 (Level 3: above 20% growth control rate) | 2 (Level 2: 5%-20% growth control rate) | 8 (Level 8: above 90% growth control rate) | 7 (Level 7: above 80% growth control rate) | 6 (Level 6: above 70% growth control rate) | 7 (Level 7: above 80% growth control rate) | 5 (Level 5: above 60% growth control rate) | 10
6 | Cc1cnn(-c2c(C(F)(F)F)ccc(C(=O)c3c(C4CC4)nn(C)c3O)c2Cl)c1 [Compound 089] | 1 (Level 1: below 5% growth control rate) | 1 (Level 1: below 5% growth control rate) | 0 | 3 (Level 3: above 20% growth control rate) | 10 | 1 (Level 1: below 5% growth control rate) | 9 (Level 9: above 95% growth control rate) | 5 (Level 5: above 60% growth control rate) | 2 (Level 2: 5%-20% growth control rate)
7 | Cn1nc(C2CC2)c(C(=O)c2ccc(C(F)(F)F)c(-n3cccn3)c2Cl)c1O [Compound 073] | 8 (Level 8: above 90% growth control rate) | 3 (Level 3: above 20% growth control rate) | 1 (Level 1: below 5% growth control rate) | 2 (Level 2: 5%-20% growth control rate) | 10 | 5 (Level 5: above 60% growth control rate) | 7 (Level 7: above 80% growth control rate) | 5 (Level 5: above 60% growth control rate) | 10
8 | CCS(=O)(=O)Oc1c(C(=O)c2ccc(C(F)(F)F)c(N3CCCCC3=O)c2Cl)cnn1C [Compound 031] | 1 (Level 1: below 5% growth control rate) | 9 (Level 9: above 95% growth control rate) | 3 (Level 3: above 20% growth control rate) | 6 (Level 6: above 70% growth control rate) | 7 (Level 7: above 80% growth control rate) | 9 (Level 9: above 95% growth control rate) | 8 (Level 8: above 90% growth control rate) | 5 (Level 5: above 60% growth control rate) | 10
9 | CCn1ncc(C(=O)c2ccc(C(F)(F)F)c(N3CCCC3=O)c2Cl)c1OC(=O)c1cn(C)nc1C [Compound 097] | 7 (Level 7: above 80% growth control rate) | 1 (Level 1: below 5% growth control rate) | 1 (Level 1: below 5% growth control rate) | 10 | 10 | 3 (Level 3: above 20% growth control rate) | 10 | 10 | 10
10 | CCc1nn(CC)c(OC(=O)c2cn(C)nc2C)c1C(=O)c1ccc(C(F)(F)F)c(-n2cccn2)c1Cl [Compound 133] | 8 (Level 8: above 90% growth control rate) | 4 (Level 4: above 50% growth control rate) | 2 (Level 2: 5%-20% growth control rate) | 8 (Level 8: above 90% growth control rate) | 10 | 2 (Level 2: 5%-20% growth control rate) | 4 (Level 4: above 50% growth control rate) | 10 | 8 (Level 8: above 90% growth control rate)
11 | CCn1nc(C2CC2)c(C(=O)c2ccc(C(F)(F)F)c(N3CCCCCC3=O)c2Cl)c1OC(=O)c1cn(C)nc1C [Compound 125] | 10 | 5 (Level 5: above 60% growth control rate) | 2 (Level 2: 5%-20% growth control rate) | 10 | 10 | 10 | 4 (Level 4: above 50% growth control rate) | 8 (Level 8: above 90% growth control rate) | 10

Reference: patent US11076594B2, “Pyrazolone compound or salt thereof, preparation method therefor, herbicide composition and use thereof” (QINGDAO KINGAGROOT CHEMICAL COMPOUNDS CO., LTD., priority 2015, dated 2021)
